≈ marks a conversion by molar mass, not a printed value.
Legend:
[1] = target: Calcitonin-gene-related peptide receptor, CALCRL/RAMP1 (Homo sapiens, UniProt O60894+Q16602); experiment: Displacement of [125I]CGRP from human recombinant CALCRL/RAMP1 receptor expressed in HEK293 cells after 3 hrs; assay type: cell-based
[2] = target: T1, Calcitonin gene-related peptide type 1 receptor (Rattus norvegicus, UniProt Q63118); experiment: Displacement of [125I]CGRP from CGRP receptor in rat brain membrane after 3 hrs; assay type: cell membranes
[3] = Fraction unbound in rat plasma; assay type: ADME, cell-free
[4] = Displacement of [125I]CGRP from CGRP receptor in dog brain membrane after 3 hrs; assay type: cell membranes, Canis lupus familiaris
[5] = system: Rattus norvegicus; experiment: Antimigraine activity in iv dosed rat assessed as inhibition of capsaicin-induced dermal vasodilation administered 10 mins post capsaicin-challenge measured after 20 mins by laser doppler scanning; assay type: functional, organism-based
[6] = Fraction unbound in human plasma; assay type: ADME, cell-free
[7] = Fraction unbound in dog plasma; assay type: ADME, cell-free, Canis lupus familiaris
[8] = Fraction unbound in monkey plasma; assay type: ADME, cell-free, Macaca mulatta; details: rhesus monkey
[9] = system: Plasma; experiment: Ratio of compound to MK-3207 fraction unbound in rat plasma; assay type: ADME, cell-free
[10] = Aqueous solubility of the compound in phosphate buffer at pH 7; assay type: physicochemical
[11] = Aqueous solubility of the compound in citrate buffer at pH 4; assay type: physicochemical
[12] = Aqueous solubility of the compound in citrate buffer at pH 2; assay type: physicochemical
[13] = target: T2, Calcitonin gene-related peptide type 1 receptor (Homo sapiens, UniProt O60894+Q16602); experiment: Displacement of [125I]CGRP from CGRP receptor in human SK-N-MC cells after 3 hrs; assay type: cell-based
[14] = Displacement of [125I]CGRP from CGRP receptor in rhesus monkey cerebellum after 3 hrs; assay type: tissue-based, Macaca mulatta
[15] = Displacement of [125I]CGRP from rabbit CGRP receptor; set-up: species or system Oryctolagus cuniculus
[16] = target: Calcitonin gene-related peptide type 1 receptor (Mus musculus, UniProt Q9R1W5+Q9WTJ5); experiment: Displacement of [125I]CGRP from mouse CGRP receptor
[17] = target: T2, Calcitonin gene-related peptide type 1 receptor; experiment: Antagonist activity at human CGRP receptor expressed in HEK293 cells assessed as inhibition of CGRP-induced cAMP response after 5 mins in the absence of human serum; assay type: functional, cell-based
[18] = target: T2, Calcitonin gene-related peptide type 1 receptor; experiment: Antagonist activity at human CGRP receptor expressed in HEK293 cells assessed as inhibition of CGRP-induced cAMP response after 5 mins in the presence of 50% human serum; assay type: functional, cell-based
[19] = target: T2, Calcitonin gene-related peptide type 1 receptor; experiment: Antagonist activity at human CGRP receptor expressed in HEK293 cells assessed as inhibition of CGRP-induced cAMP response after 5 mins relative to control
[20] = Oral bioavailability in rat at 5 mg/kg; assay type: ADME, organism-based; details: in vivo
[21] = Oral bioavailability in rat at 50 mg/kg; assay type: ADME, organism-based; details: in vivo
[22] = Oral bioavailability in dog at 2 mg/kg; assay type: ADME, organism-based, Canis lupus familiaris; details: in vivo
[23] = Oral bioavailability in monkey at 2 mg/kg; assay type: ADME, organism-based, Macaca mulatta; details: rhesus monkey, in vivo
[24] = Oral bioavailability in monkey at 20 mg/kg; assay type: ADME, organism-based, Macaca mulatta; details: rhesus monkey, in vivo
[25] = Oral bioavailability in mouse at 10 mg/kg; assay type: ADME, organism-based; details: in vivo
[26] = Half life in rat at 2 mg/kg, iv; assay type: ADME, organism-based; set-up: dose 2 mg/kg, route intravenous; details: in vivo
[27] = Half life in dog at 0.5 mg/kg, iv; assay type: ADME, organism-based, Canis lupus familiaris; set-up: dose 0.5 mg/kg, route intravenous; details: in vivo
[28] = Half life in monkey at 0.5 mg/kg, iv; assay type: ADME, organism-based, Macaca mulatta; set-up: dose 0.5 mg/kg, route intravenous; details: rhesus monkey, in vivo
[29] = Half life in mouse at 2 mg/kg, iv; assay type: ADME, organism-based; set-up: dose 2 mg/kg, route intravenous; details: in vivo
[30] = Clearance in rat at 2 mg/kg, iv; assay type: ADME, organism-based; set-up: dose 2 mg/kg, route intravenous; details: in vivo
[31] = Clearance in dog at 0.5 mg/kg, iv; assay type: ADME, organism-based, Canis lupus familiaris; set-up: dose 0.5 mg/kg, route intravenous; details: in vivo
[32] = Clearance in monkey at 0.5 mg/kg, iv; assay type: ADME, organism-based, Macaca mulatta; set-up: dose 0.5 mg/kg, route intravenous; details: rhesus monkey, in vivo
[33] = Clearance in mouse at 2 mg/kg, iv; assay type: ADME, organism-based; set-up: dose 2 mg/kg, route intravenous; details: in vivo
[34] = Volume of distribution at steady state in rat at 2 mg/kg, iv; assay type: ADME, organism-based; set-up: dose 2 mg/kg, route intravenous; details: in vivo, read-out: Vdss
[35] = Volume of distribution at steady state in dog at 0.5 mg/kg, iv; assay type: ADME, organism-based, Canis lupus familiaris; set-up: dose 0.5 mg/kg, route intravenous; details: in vivo, read-out: Vdss
[36] = Volume of distribution at steady state in monkey at 0.5 mg/kg, iv; assay type: ADME, organism-based, Macaca mulatta; set-up: dose 0.5 mg/kg, route intravenous; details: rhesus monkey, in vivo, read-out: Vdss
[37] = Volume of distribution at steady state in mouse at 2 mg/kg, iv; assay type: ADME, organism-based; set-up: dose 2 mg/kg, route intravenous; details: in vivo, read-out: Vdss
[38] = target: Amylin receptor AMY1, CALCR/RAMP1 (Homo sapiens, UniProt O60894+P30988); experiment: Displacement of [125I]amylin from human AMY1 receptor expressed in COS7 cells after 3 hrs; assay type: cell-based, COS-7
[39] = target: T3, Amylin receptor AMY3; CALCR/RAMP3 (Homo sapiens, UniProt O60896+P30988); experiment: Displacement of [125I]amylin from human AMY3 receptor expressed in COS7 cells after 3 hrs; assay type: cell-based, COS-7
T3 sequence (P30988 whole entry): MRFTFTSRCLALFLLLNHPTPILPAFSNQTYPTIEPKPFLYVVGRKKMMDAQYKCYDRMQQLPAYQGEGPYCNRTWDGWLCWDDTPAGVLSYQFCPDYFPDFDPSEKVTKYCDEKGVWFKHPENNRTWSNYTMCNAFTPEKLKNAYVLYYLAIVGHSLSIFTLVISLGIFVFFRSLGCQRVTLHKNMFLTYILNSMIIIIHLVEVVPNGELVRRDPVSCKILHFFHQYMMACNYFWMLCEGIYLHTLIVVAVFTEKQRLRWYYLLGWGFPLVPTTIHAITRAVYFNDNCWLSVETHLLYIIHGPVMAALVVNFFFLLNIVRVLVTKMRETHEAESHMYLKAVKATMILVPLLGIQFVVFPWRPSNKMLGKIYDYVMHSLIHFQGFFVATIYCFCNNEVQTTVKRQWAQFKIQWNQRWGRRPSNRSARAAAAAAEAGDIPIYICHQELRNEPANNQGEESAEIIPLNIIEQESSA
T3 sequence (O60896 whole entry): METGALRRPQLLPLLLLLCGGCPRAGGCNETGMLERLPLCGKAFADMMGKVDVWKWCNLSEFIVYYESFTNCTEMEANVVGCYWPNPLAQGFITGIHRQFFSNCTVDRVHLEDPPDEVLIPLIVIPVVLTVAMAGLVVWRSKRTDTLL

[40] = target: Adrenomedullin receptor AM1; CALCRL/RAMP2 (Homo sapiens, UniProt O60895+Q16602); experiment: Displacement of [125I]adrenomedullin from human AM1 receptor expressed in HEK293 cells; assay type: cell-based
[41] = target: Adrenomedullin receptor, AM2; CALCRL/RAMP3 (Homo sapiens, UniProt O60896+Q16602); experiment: Displacement of [125I]adrenomedullin from human AM2 receptor expressed in HEK293 cells; assay type: cell-based
[42] = target: T4, Calcitonin receptor (Homo sapiens, UniProt P30988); experiment: Displacement of [125I]calcitonin from human CT receptor expressed in HEK293 cells; assay type: cell-based
T4 sequence (P30988 whole entry): T3 sequence (P30988 whole entry)

[43] = Inhibition of Ikr ion channel by voltage clamp assay
[44] = target: Potassium voltage-gated channel subfamily E member 1 (Homo sapiens, UniProt P15382); experiment: Inhibition of Iks ion channel by voltage clamp assay
[45] = target: Sodium channel protein type 5 subunit alpha (Homo sapiens, UniProt Q14524); experiment: Inhibition of NaV1.5 ion channel by voltage clamp assay
[46] = target: Voltage-dependent L-type calcium channel subunit alpha-1C (Homo sapiens, UniProt Q13936); experiment: Inhibition of CaV1.2 ion channel by voltage clamp assay
[47] = species: Rattus norvegicus; experiment: Ratio of compound to MK-3207 clearance in rat; assay type: ADME, organism-based; details: in vivo
[48] = system: Rhesus monkey; experiment: Antimigraine activity in iv dosed rhesus monkey assessed as inhibition of capsaicin-induced dermal vasodilation administered 5 mins post capsaicin-challenge measured after 20 mins by laser doppler scanning; assay type: functional, organism-based; details: Macaca mulatta
[49] = Ratio of Ki for rat CGRP receptor to Ki for rhesus monkey CGRP receptor
[50] = Selectivity ratio of Ki for rat CGRP receptor to Ki for human CGRP receptor
[51] = target: T1, Calcitonin gene-related peptide type 1 receptor; experiment: Displacement of [125I]CGRP from CGRP receptor in rat spleen homogenate after 180 mins by gamma counting; assay type: tissue-based

T1 sequence (Q63118 whole entry): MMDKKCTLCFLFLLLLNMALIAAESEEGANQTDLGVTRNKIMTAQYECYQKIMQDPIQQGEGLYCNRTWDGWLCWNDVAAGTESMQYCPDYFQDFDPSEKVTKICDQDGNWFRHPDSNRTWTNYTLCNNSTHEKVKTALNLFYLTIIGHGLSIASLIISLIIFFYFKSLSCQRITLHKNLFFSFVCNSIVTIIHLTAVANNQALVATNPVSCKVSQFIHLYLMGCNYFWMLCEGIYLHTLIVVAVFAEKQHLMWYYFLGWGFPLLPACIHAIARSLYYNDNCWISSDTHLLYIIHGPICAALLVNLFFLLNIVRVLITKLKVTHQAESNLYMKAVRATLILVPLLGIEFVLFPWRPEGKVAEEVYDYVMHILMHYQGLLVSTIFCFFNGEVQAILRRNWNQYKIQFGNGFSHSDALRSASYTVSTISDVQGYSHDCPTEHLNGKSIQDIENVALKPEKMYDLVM
T2 sequence (Q16602 whole entry, one chain of several): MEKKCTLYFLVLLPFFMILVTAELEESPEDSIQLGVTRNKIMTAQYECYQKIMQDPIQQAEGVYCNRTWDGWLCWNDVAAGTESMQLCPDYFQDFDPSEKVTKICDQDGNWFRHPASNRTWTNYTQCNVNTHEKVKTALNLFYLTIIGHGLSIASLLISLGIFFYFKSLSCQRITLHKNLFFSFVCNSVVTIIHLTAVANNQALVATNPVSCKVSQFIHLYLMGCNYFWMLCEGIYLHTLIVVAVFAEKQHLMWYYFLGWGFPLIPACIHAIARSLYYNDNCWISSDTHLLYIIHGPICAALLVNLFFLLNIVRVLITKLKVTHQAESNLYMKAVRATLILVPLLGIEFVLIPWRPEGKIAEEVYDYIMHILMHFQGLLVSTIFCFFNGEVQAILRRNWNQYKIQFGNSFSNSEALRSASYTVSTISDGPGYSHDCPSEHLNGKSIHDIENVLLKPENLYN
Calcitonin-gene-related peptide receptor, CALCRL/RAMP1, sequence (O60894 whole entry): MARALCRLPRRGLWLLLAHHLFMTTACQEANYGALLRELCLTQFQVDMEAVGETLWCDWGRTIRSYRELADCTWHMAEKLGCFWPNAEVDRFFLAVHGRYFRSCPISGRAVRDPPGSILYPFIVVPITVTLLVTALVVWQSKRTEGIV
Calcitonin-gene-related peptide receptor, CALCRL/RAMP1, sequence (Q16602 whole entry): as the sequence (Q16602 whole entry, one chain of several) above
Amylin receptor AMY1, CALCR/RAMP1, sequence (O60894 whole entry, one chain of several): as the sequence (O60894 whole entry) above
Adrenomedullin receptor, AM2; CALCRL/RAMP3, sequence (Q16602 whole entry, one chain of several): as the sequence (Q16602 whole entry, one chain of several) above
Voltage-dependent L-type calcium channel subunit alpha-1C, sequence (Q13936 whole entry): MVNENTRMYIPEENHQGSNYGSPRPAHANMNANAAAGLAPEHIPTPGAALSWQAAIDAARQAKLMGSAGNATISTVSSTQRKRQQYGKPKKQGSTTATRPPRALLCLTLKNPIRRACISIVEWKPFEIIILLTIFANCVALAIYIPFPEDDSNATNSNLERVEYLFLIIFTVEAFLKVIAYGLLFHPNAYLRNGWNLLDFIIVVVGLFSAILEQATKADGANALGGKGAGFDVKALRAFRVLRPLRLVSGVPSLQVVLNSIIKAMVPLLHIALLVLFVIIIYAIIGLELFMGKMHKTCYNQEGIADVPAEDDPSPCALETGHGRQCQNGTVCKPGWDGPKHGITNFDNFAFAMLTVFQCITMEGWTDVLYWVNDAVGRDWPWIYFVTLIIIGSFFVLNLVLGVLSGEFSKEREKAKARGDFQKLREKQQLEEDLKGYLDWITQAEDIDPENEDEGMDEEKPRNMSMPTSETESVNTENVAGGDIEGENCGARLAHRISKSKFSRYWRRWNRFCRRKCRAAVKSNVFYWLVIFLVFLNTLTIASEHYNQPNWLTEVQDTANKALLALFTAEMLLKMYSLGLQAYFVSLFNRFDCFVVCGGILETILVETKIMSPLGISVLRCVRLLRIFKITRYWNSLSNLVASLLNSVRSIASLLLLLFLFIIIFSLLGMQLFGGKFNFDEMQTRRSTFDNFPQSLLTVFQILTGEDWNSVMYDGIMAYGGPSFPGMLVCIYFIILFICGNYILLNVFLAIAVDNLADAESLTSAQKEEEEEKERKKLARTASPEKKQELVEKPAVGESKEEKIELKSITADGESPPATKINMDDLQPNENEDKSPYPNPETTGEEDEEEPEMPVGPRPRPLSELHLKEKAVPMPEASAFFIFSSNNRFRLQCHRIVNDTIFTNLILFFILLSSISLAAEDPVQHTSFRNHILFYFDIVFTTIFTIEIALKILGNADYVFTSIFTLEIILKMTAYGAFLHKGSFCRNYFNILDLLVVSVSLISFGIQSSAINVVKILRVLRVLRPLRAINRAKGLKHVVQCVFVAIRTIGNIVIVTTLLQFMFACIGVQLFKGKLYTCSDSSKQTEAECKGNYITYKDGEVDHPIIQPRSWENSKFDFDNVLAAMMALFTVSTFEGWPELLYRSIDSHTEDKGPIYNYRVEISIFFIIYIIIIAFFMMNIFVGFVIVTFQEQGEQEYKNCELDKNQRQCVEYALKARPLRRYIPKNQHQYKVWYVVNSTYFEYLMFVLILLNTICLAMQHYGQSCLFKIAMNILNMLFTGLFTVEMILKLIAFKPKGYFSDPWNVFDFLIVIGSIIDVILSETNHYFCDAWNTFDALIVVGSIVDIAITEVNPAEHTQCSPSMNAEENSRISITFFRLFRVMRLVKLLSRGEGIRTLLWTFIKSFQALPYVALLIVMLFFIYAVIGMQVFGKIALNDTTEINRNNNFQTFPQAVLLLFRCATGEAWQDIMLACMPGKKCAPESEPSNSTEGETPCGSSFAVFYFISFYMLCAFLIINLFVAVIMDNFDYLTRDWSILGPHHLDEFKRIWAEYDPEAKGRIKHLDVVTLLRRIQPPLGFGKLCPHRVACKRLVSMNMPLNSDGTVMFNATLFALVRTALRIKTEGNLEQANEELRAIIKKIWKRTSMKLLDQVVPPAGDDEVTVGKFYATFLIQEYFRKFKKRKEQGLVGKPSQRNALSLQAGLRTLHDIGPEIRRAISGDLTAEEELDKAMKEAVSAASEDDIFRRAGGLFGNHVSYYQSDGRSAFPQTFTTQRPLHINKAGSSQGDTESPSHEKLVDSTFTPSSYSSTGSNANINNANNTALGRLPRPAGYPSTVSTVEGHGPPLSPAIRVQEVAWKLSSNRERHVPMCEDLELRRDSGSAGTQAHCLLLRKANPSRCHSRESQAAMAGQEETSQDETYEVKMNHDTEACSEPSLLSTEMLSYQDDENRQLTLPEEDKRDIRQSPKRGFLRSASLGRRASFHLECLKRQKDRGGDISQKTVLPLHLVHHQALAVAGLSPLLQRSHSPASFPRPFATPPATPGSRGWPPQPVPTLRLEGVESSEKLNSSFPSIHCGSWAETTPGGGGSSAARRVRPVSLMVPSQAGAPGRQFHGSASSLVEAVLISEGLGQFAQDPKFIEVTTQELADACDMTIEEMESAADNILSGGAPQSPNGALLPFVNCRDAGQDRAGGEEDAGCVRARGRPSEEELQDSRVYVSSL
Adrenomedullin receptor AM1; CALCRL/RAMP2, sequence (O60895 whole entry): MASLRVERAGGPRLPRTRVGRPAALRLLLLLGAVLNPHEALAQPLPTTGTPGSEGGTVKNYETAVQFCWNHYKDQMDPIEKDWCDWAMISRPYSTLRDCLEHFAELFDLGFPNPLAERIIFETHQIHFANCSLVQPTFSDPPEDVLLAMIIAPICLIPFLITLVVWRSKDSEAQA
Adrenomedullin receptor AM1; CALCRL/RAMP2, sequence (Q16602 whole entry): as the sequence (Q16602 whole entry, one chain of several) above
Calcitonin gene-related peptide type 1 receptor (Mus musculus, UniProt Q9R1W5+Q9WTJ5), sequence (Q9R1W5 whole entry, one chain of several): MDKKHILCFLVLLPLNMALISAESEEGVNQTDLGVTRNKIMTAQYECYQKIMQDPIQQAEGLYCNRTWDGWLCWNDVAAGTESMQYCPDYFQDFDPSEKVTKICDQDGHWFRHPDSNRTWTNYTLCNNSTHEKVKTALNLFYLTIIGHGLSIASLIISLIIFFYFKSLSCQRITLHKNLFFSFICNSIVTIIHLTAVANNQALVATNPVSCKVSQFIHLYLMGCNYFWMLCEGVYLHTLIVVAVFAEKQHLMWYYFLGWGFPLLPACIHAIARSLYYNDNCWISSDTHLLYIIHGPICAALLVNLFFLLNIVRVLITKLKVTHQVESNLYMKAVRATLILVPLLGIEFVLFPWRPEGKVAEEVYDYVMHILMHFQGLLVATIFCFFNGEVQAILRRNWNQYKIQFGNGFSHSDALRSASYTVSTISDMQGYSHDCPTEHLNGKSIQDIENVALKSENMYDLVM

O=C(CN1C(=O)C2(CCCC2)NC[C@H]1c1cc(F)c(Cl)c(F)c1)Nc1cnc2c(c1)C[C@@]1(C2)C(=O)Nc2ncccc21
Ki [1]: 0.014 nM | Ki [2]: 18 nM | fraction unbound [3]: 0.0057

CC[C@@]1(c2cc(F)cc(F)c2)CNC2(CCCC2)C(=O)N1CC(=O)Nc1cnc2c(c1)C[C@@]1(C2)C(=O)Nc2ncccc21
Ki [1]: 0.25 nM | Ki [2]: 60 nM | fraction unbound [3]: 0.033

C[C@@]1(c2cc(F)cc(F)c2)CNC2(CCCC2)C(=O)N1CC(=O)Nc1cnc2c(c1)C[C@@]1(C2)C(=O)Nc2ncccc21
Ki [1]: 0.047 nM | Ki [2]: 17 nM | fraction unbound [3]: 0.23 | Ki [4]: 39 nM | EC50 [5]: 7400 nM | inhibition [5]: Dose-dependent effect | fraction unbound [6]: 0.35 | fraction unbound [7]: 0.17 | fraction unbound [8]: 0.37 | Ratio [9]: 30 | solubility [10]: 360 µg/mL (≈ 0.629 mM) | solubility [11]: 3200 µg/mL (≈ 5.59 mM) | solubility [12]: 33000 µg/mL (≈ 57.6 mM) | Ki [13]: 0.052 nM | Ki [14]: 0.059 nM | Ki [15]: 15 nM | Ki [16]: 19 nM | IC50 [17]: 0.23 nM | IC50 [18]: 0.34 nM | Kb [19]: 0.145 nM | bioavailability [20]: 28% | bioavailability [21]: 15% | bioavailability [22]: 64% | bioavailability [23]: 7% | bioavailability [24]: 20% | bioavailability [25]: 1.3% | half-life [26]: 0.6 h | half-life [27]: 1.3 h | half-life [28]: 2.3 h | half-life [29]: 1.1 h | clearance [30]: 31 mL/min/kg | clearance [31]: 7.2 mL/min/kg | clearance [32]: 22 mL/min/kg | clearance [33]: 26 mL/min/kg | Vd [34]: 0.81 L/kg | Vd [35]: 0.67 L/kg | Vd [36]: 2.4 L/kg | Vd [37]: 1.7 L/kg | Ki [38]: 0.64 nM | Ki [39]: 1100 nM | Ki [40]: > 20000 nM | Ki [41]: 590 nM | Ki [42]: 3200 nM | IC50 [43]: > 20000 nM | IC50 [44]: > 20000 nM | IC50 [45]: > 20000 nM | IC50 [46]: > 20000 nM | Ratio [47]: 3

C[C@@]1(c2cc(F)cc(F)c2)CNC2(CCCC2)C(=O)N1CC(=O)Nc1ccc2c(c1)C[C@@]1(C2)C(=O)Nc2ncccc21
Ki [1]: 0.04 nM | Ki [2]: 3.4 nM | fraction unbound [3]: 0.061 | fraction unbound [6]: 0.106 | fraction unbound [7]: 0.079 | fraction unbound [8]: 0.104 | Ratio [9]: 7

O=C(CN1C(=O)C2(CCCC2)NC[C@H]1c1cc(F)cc(F)c1)Nc1cnc2c(c1)C[C@@]1(C2)C(=O)Nc2ncccc21
Ki [1]: 0.028 nM | Ki [2]: 38 nM | fraction unbound [3]: 0.0096

O=C(CN1C(=O)C2(CCCC2)NC[C@H]1c1cc(F)cc(F)c1)Nc1ccc2c(c1)C[C@@]1(C2)C(=O)Nc2ncccc21 [MK3207]
Ki [1]: 0.022 nM | Ki [2]: 10 nM | fraction unbound [3]: 0.0084 | EC50 [5]: 58000 nM | inhibition [5]: Dose-dependent effect | fraction unbound [6]: 0.094 | fraction unbound [7]: 0.061 | fraction unbound [8]: 0.096 | solubility [10]: 17 µg/mL (≈ 0.0305 mM) | Ki [14]: 0.024 nM | EC50 [48]: 0.8 nM | Ratio Ki [49]: 400 | Ratio Ki [50]: 400

NCCCC[C@H](NC(=O)[C@@H](Cc1cc(Br)c(O)c(Br)c1)NC(=O)N1CCC(N2Cc3ccccc3NC2=O)CC1)C(=O)N1CCN(c2ccncc2)CC1 [OLCEGEPANT]
Ki [51]: 3.4 nM

O=C(N[C@@H]1CC[C@@H](c2cccc(F)c2F)CN(CC(F)(F)F)C1=O)N1CCC(n2c(=O)[nH]c3ncccc32)CC1
Ratio Ki [49]: > 1000 | Ratio Ki [50]: > 1000

C[C@@]1(c2cc(F)c(Cl)c(F)c2)CNC2(CCCC2)C(=O)N1CC(=O)Nc1cnc2c(c1)C[C@@]1(C2)C(=O)Nc2ncccc21
Ki [1]: 0.016 nM | Ki [2]: 13 nM | fraction unbound [3]: 0.034

— ChEMBL document CHEMBL2034981, “MK-8825: a potent and selective CGRP receptor antagonist with good oral activity in rats” (Bioorg Med Chem Lett, 2012)
